Source: patent US8198456B2, “Dihydropyridine derivatives as useful as protein kinase inhibitors” (Bayer Intellectual Property GmbH, priority 2006, dated 2012)

Target: T1, recombinant human c-MET kinase enzyme domain (Homo sapiens, UniProt P08581)
T1 construct: Recombinant c-Met kinase domain (amino acids 960-1390); His (N); made in house; host or cells: baculovirus expression system (insect cells; SF21 is named only for the alternative format)
Assay: c-MET receptor tyrosine kinase Homogeneous Time Resolved Fluorescence assay (HTRF)
Type: biochemical
Settings: Biological Example 1 and/or Biological Example 2
Text: Recombinant c-Met kinase domain (amino acids 960-1390) was produced in a baculovirus expression vector as an N-terminal His-tagged fusion protein and purified on a NiNTA column. The resulting purified enzyme was then used in the following c-Met Homogeneous Time Resolved Fluorescence assay (HTRF) to find compounds of the invention and to perform initial activity determinations. Specifically, this assay measures the ability of compounds of the invention to inhibit the phosphorylation of a randomly synthesized, biotinylated heterocopolymeric polypeptide composed of glutamic acid and tyrosine, with an average length of 100 aa. The assay analyzes the amount of phosphorylated polypeptide produced.
The enzymatic phosphorylation of the biotinylated heterocopolymeric polypeptide was performed in a black 384-well plate at ambient temperature in a reaction mixture containing 50 mM HEPES (pH 7.4), 5 mM MgCl2, 5 mM MnCl2, 0.01% Tween-20, and 2 mM DTT, […] recombinant human c-MET kinase enzyme domain, 37 nM biotinylated heterocopolymeric polypeptide composed of glutamic acid and tyrosine, 20 μM ATP, 1% DMSO in the absence or presence of a compound of the invention. The reaction was stopped after a 20-minute incubation by the addition of 80 mM EDTA.
The formation of phosphorylated heterocopolymeric, biotinylated polypeptide was quantified with the HTRF assay technology using an anti-phosphotyrosine antibody, PT66, conjugated to europium cryptate, mixed with a streptavidin-XL665 conjugate. Reduced or inhibited phosphorylation of the heterocopolymeric, biotinylated polypeptide prevents the anti-phosphotyrosine antibody from binding to the peptide, resulting in a loss of energy transfer to the streptavidin-XL665 conjugate.
Following the 384-well enzymatic phosphorylation reaction outlined above, the detection of phosphorylated heterocopolymeric, biotinylated polypeptide was performed by dilution of the stopped reaction mixture 2-fold with 50 mM HEPES (pH 7.0), 500 mM KF, 0.1% BSA, streptavidin-XL665 (20 nM), and anti-phosphotyrosine antibody PT66-crypate conjugate (6.4 ng/well) and incubation for four hours at ambient temperature. Plates were read in an Envision plate reader (PerkinElmer Life and Analytical Sciences, Inc., MA) simultaneously at 620 nm and 665 nm to obtain signal ratios of 665 nm/620 nm. Results of energy transfer were expressed as signal ratios of 665 nm/620 nm. Negative controls were samples without recombinant c-MET or c-MET treated with 100 mM EDTA.
For determination of IC50 values of particular compounds of the invention, eight serially diluted compound concentrations (at 1:3.16 dilution) were used in the assay. Controls without a compound of the invention or with a reference compound were run in parallel in the same assay plate.

T1 sequence (P08581 960-1390): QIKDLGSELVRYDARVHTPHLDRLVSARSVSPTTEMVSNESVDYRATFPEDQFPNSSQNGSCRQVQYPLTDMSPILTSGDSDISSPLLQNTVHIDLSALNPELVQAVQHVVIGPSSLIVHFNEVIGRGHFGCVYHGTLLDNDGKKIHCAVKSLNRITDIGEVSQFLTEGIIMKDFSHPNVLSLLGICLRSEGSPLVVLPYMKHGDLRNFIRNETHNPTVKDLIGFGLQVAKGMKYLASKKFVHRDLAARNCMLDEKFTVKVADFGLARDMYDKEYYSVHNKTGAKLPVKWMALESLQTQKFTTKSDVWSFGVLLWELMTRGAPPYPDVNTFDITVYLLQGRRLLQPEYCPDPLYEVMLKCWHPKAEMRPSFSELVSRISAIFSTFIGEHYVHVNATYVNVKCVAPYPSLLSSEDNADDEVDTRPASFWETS

IC50 | SMILES
0.1 to 0.5 µM | CC1=C(C#N)C(c2cccc(C(=O)Nc3ccc(CN(C)C)cn3)c2)C(C#N)=C(C)N1 [compound 76, 3-(3,5-dicyano-1,4-dihydro-2,6-dimethyl-4-pyridinyl)-N-[5-[(dimethylamino)methyl]-2-pyridinyl]-benzamide]
< 0.1 µM | CC1=C(C#N)C(c2ccc3[nH]ncc3c2)C(C#N)=C(C)N1 [compound 80, 1,4-dihydro-4-(1H-indazol-5-yl)-2,6-dimethyl-3,5-pyridinedicarbonitrile]
< 0.1 µM | CC1=C(C#N)C(c2ccc3[nH]nc(C)c3c2)C(C#N)=C(C)N1 [compound 81, 1,4-dihydro-2,6-dimethyl-4-(3-methyl-1H-indazol-5-yl)-3,5-pyridinedicarbonitrile]
< 0.1 µM | CC1=C(C#N)C(c2ccc3[nH]nc(N)c3c2)C(C#N)=C(C)N1 [compound 82, 4-(3-amino-1H-indazol-5-yl)-1,4-dihydro-2,6-dimethyl-3,5-pyridinedicarbonitrile]
0.5 to 2.5 µM | CC1=C(C#N)C(c2ccc3[nH]nc(CN4CCOCC4)c3c2)C(C#N)=C(C)N1 [compound 83, 1,4-dihydro-2,6-dimethyl-4-[3-(4-morpholinylmethyl)-1H-indazol-5-yl]-3,5-pyridinedicarbonitrile]
0.1 to 0.5 µM | COc1cccc(-c2n[nH]c3ccc(C4C(C#N)=C(C)NC(C)=C4C#N)cc23)c1 [compound 84, 1,4-dihydro-4-[3-(3-methoxyphenyl)-1H-indazol-5-yl]-2,6-dimethyl-3,5-pyridinedicarbonitrile]
0.5 to 2.5 µM | COC(=O)c1n[nH]c2ccc(C3C(C#N)=C(C)NC(C)=C3C#N)cc12 [compound 85, 5-(3,5-dicyano-1,4-dihydro-2,6-dimethyl-4-pyridinyl)-1H-indazole-3-carboxylic acid methyl ester]
< 0.1 µM | CC1=C(C#N)C(c2ccc3[nH]nc(C(=O)O)c3c2)C(C#N)=C(C)N1 [compound 86, 5-(3,5-dicyano-1,4-dihydro-2,6-dimethyl-4-pyridinyl)-1H-indazole-3-carboxylic acid]
< 0.1 µM | CC1=C(C#N)C(c2ccc3[nH]nc(-c4cccnc4)c3c2)C(C#N)=C(C)N1 [compound 87, 1,4-dihydro-2,6-dimethyl-4-[3-(3-pyridinyl)-1H-indazol-5-yl]-3,5-pyridinedicarbonitrile]
< 0.1 µM | CC1=C(C#N)C(c2ccc3[nH]nc(-c4ccccn4)c3c2)C(C#N)=C(C)N1 [compound 88, 1,4-dihydro-2,6-dimethyl-4-[3-(2-pyridinyl)-1H-indazol-5-yl]-3,5-pyridinedicarbonitrile]
< 0.1 µM | CC(=O)Nc1n[nH]c2ccc(C3C(C#N)=C(C)NC(C)=C3C#N)cc12 [compound 89, N-[5-(3,5-dicyano-1,4-dihydro-2,6-dimethyl-4-pyridinyl)-1H-indazol-3-yl]-acetamide]
< 0.1 µM | CC1=C(C#N)C(c2ccc3[nH]nc(CNc4cccnc4)c3c2)C(C#N)=C(C)N1 [compound 91, 1,4-dihydro-2,6-dimethyl-4-[3-[(3-pyridinylamino)methyl]-1H-indazol-5-yl]-3,5-pyridinedicarbonitrile]
0.1 to 0.5 µM | CC1=C(C#N)C(c2ccc3c(c2)c(N)nn3C(=O)OC(C)(C)C)C(C#N)=C(C)N1 [compound 92, 3-amino-5-(3,5-dicyano-1,4-dihydro-2,6-dimethyl-4-pyridinyl)-1H-indazole-1-carboxylic acid tert-butyl ester]
< 0.1 µM | CC1=C(C#N)C(c2ccc3[nH]nc(I)c3c2)C(C#N)=C(C)N1 [compound 93, 1,4-dihydro-4-(3-iodo-1H-indazol-5-yl)-2,6-dimethyl-3,5-pyridinedicarbonitrile]
< 0.1 µM | CC1=C(C#N)C(c2ccc3c(c2)c(N)nn3C(=O)c2ccccc2)C(C#N)=C(C)N1 [compound 95, 4-(3-amino-1-benzoyl-1H-indazol-5-yl)-1,4-dihydro-2,6-dimethyl-3,5-pyridinedicarbonitrile]
< 0.1 µM | CC1=C(C#N)C(c2ccc3[nH]nc(NCc4ccccc4)c3c2)C(C#N)=C(C)N1 [compound 105, 1,4-dihydro-2,6-dimethyl-4-[3-[(phenylmethyl)amino]-1H-indazol-5-yl]-3,5-pyridinedicarbonitrile]
0.1 to 0.5 µM | COC(c1cccnc1)n1nc(N)c2cc(C3C(C#N)=C(C)NC(C)=C3C#N)ccc21 (stereo not drawn) [compound 110, 4-[3-amino-1-(methoxy-3-pyridinylmethyl)-1H-indazol-5-yl]-1,4-dihydro-2,6-dimethyl-3,5-pyridinedicarbonitrile]
< 0.1 µM | CC1=C(C#N)C(c2ccc3[nH]nc(-c4ccc(N5CCNCC5)cc4)c3c2)C(C#N)=C(C)N1 [compound 111, 1,4-dihydro-2,6-dimethyl-4-[3-[4-(1-piperazinyl)phenyl]-1H-indazol-5-yl]-3,5-pyridinedicarbonitrile]
< 0.1 µM | CC1=C(C#N)C(c2ccc3[nH]nc(NCCO)c3c2)C(C#N)=C(C)N1 [compound 118, 1,4-dihydro-4-[3-[(2-hydroxyethyl)amino]-1H-indazol-5-yl]-2,6-dimethyl-3,5-pyridinedicarbonitrile]
< 0.1 µM | CC1=C(C#N)C(c2ccc3c(c2)c(NCCO)nn3C(=O)OC(C)(C)C)C(C#N)=C(C)N1 [compound 119, 5-(3,5-dicyano-1,4-dihydro-2,6-dimethyl-4-pyridinyl)-3-[(2-hydroxyethyl)-amino]-1H-indazole-1-carboxylic acid, 1,1-dimethylethyl ester]
< 0.1 µM | CC1=C(C#N)C(c2ccc3[nH]nc(NCc4cccnc4)c3c2)C(C#N)=C(C)N1 [compound 120, 1,4-dihydro-2,6-dimethyl-4-[3-[(3-pyridinylmethyl)amino]-1H-indazol-5-yl]-3,5-pyridinedicarbonitrile]
0.5 to 2.5 µM | COC(=O)Nc1ccc(-c2n[nH]c3ccc(C4C(C#N)=C(C)NC(C)=C4C#N)cc23)cc1 [compound 123, [4-[5-(3,5-dicyano-1,4-dihydro-2,6-dimethyl-4-pyridinyl)-1H-indazol-3-yl]-phenyl]-carbamic acid methyl ester]
< 0.1 µM | CC1=C(C#N)C(c2ccc3[nH]nc(C(=O)NCCN4CCCC4)c3c2)C(C#N)=C(C)N1 [compound 124, 5-(3,5-dicyano-1,4-dihydro-2,6-dimethyl-4-pyridinyl)-N-[2-(1-pyrrolidinyl)ethyl]-1H-indazole-3-carboxamide]
< 0.1 µM | CC1=C(C#N)C(c2ccc3[nH]nc(C(=O)NCCC4CCCN4C)c3c2)C(C#N)=C(C)N1 (stereo not drawn) [compound 125, 5-(3,5-dicyano-1,4-dihydro-2,6-dimethyl-4-pyridinyl)-N-[2-(1-methyl-2-pyrrolidinyl)ethyl]-1H-indazole-3-carboxamide]
0.5 to 2.5 µM | CC1=C(C#N)C(c2ccc3[nH]nc(NCc4ccc([N+](=O)[O-])cc4)c3c2)C(C#N)=C(C)N1 [compound 127, 1,4-dihydro-2,6-dimethyl-4-[3-[[(4-nitrophenyl)methyl]amino]-1H-indazol-5-yl]-3,5-pyridinedicarbonitrile]
< 0.1 µM | CC1=C(C#N)C(c2ccc3[nH]nc(NCc4ccc(N)cc4)c3c2)C(C#N)=C(C)N1 [compound 128, 4-[3-[[(4-aminophenyl)methyl]amino]-1H-indazol-5-yl]-1,4-dihydro-2,6-dimethyl-3,5-pyridinedicarbonitrile]
< 0.1 µM | CC1=C(C#N)C(c2ccc3[nH]nc(NC(=O)c4ccccc4)c3c2)C(C#N)=C(C)N1 [compound 129, N-[5-(3,5-dicyano-1,4-dihydro-2,6-dimethyl-4-pyridinyl)-1H-indazol-3-yl]-benzamide]
0.5 to 2.5 µM | CC1=C(C#N)C(c2ccc3[nH]nc(CN4CCN(c5ccncc5)CC4)c3c2)C(C#N)=C(C)N1 [compound 130, 1,4-dihydro-2,6-dimethyl-4-[3-[[4-(4-pyridinyl)-1-piperazinyl]methyl]-1H-indazol-5-yl]-3,5-pyridinedicarbonitrile]
0.5 to 2.5 µM | CC1=C(C#N)C(c2ccc3[nH]nc(NCC4CCN(C(=O)OC(C)(C)C)CC4)c3c2)C(C#N)=C(C)N1 [compound 131, 4-[[[5-(3,5-dicyano-1,4-dihydro-2,6-dimethyl-4-pyridinyl)-1H-indazol-3-yl]-amino]methyl]-1-piperidinecarboxylic acid 1,1-dimethylethyl ester]
< 0.1 µM | CC1=C(C#N)C(c2ccc3[nH]nc(NCC4CCNCC4)c3c2)C(C#N)=C(C)N1 [compound 133, 1,4-dihydro-2,6-dimethyl-4-[3-[(4-piperidinylmethyl)amino]-1H-indazol-5-yl]-3,5-pyridinedicarbonitrile]
